Assay results taken from patent US20240051955A1, “4-AMINO-3-(4-PHENOXYPHENYL)-1,3-DIHYDRO-2H-IMIDAZO[4,5-C]PYRIDIN-2-ONE DERIVATIVES AND SALTS THEREOF” (Genzyme Corporation, priority 2020, published 2024).

Experiments:
BTK(h) = BTK(h) (Homo sapiens (Human), UniProt Q06187); assay: BTK(h) kinase activity study; format: biochemical; settings: no pre-incubation of compound with enzyme/substrate mix prior to ATP addition
Protocol: Compounds of Formula Ib, Formula II, and Formula III were tested against BTK(h) as described herein. All compounds tested were prepared to a working stock of 50× final assay concentration in 100% DMSO. Where appropriate, more concentrated stocks were diluted manually to 50× using 100% DMSO. Compounds, which were powders, were reconstituted to a 10 mM stock in 100% DMSO before further dilution to 50×.
The required volume of the 50× stock of test compound was added to the assay well before a reaction mix containing the enzyme and substrate was added. The reaction was initiated by the addition of ATP at the selected concentration. There was no pre-incubation of the compound with the enzyme/substrate mix prior to ATP addition.
Results are expressed as kinase activity remaining, as a percentage of the DMSO control. This is calculated using the following formula: […]
For IC50 determinations, data are analyzed using XLFit version 5.3 (ID Business Solutions). Sigmoidal dose-response (variable slope) curves are fit based on the mean result for each test concentration using non-linear regression analysis. Where the top and/or bottom of the curve fall >10% out with 100 and 0, respectively, either or both of these limits may be constrained at 100 and 0, provided that the QC criterion on R^2 is met.

Dopamine transporter (h) = Dopamine transporter (h) (Homo sapiens (Human), UniProt Q01959); assay: Dopamine transporter (h) binding assay, [3H]BTCP; settings: Human recombinant (CHO cells); [3H]BTCP 4 nM; 120 min 4° C.
Dopamine transporter (h), sequence (Q01959 whole entry): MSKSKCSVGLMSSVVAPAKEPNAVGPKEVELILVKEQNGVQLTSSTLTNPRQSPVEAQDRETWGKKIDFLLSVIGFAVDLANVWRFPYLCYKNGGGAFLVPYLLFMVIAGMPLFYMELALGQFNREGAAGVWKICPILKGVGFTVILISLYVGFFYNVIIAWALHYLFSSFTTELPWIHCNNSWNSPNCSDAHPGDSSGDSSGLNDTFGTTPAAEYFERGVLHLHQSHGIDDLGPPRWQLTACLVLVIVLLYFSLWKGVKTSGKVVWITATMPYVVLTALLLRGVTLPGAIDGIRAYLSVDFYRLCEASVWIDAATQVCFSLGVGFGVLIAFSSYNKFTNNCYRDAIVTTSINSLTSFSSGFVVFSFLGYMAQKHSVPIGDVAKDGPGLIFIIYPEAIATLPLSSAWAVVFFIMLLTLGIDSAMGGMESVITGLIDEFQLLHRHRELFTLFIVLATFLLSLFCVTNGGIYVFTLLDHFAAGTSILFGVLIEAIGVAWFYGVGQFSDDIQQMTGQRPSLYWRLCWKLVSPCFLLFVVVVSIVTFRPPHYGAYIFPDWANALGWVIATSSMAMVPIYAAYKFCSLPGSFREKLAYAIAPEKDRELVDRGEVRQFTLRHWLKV
Protocol: (§1) Compounds of Formula Ia, Formula Ib, Formula III, Formula IV, and Formula V were tested in various in vitro assays. Compound binding was calculated as a % inhibition of the binding of a radioactively labeled ligand specific for each target. Compound enzyme inhibition effect was calculated as a % inhibition of control enzyme activity.
The general procedure is noted below. See Pristupa, Z. B. et al. (1994), Mol. Pharmacol., 45: 125-135. Minor variations to the experimental protocol described below may have occurred during the testing, but if so, they had no impact on the quality of the results obtained.

H2 (h) = H2 (h) (Homo sapiens (Human), UniProt P25021); assay: H2 (h) binding assay, [125I]APT; settings: Human recombinant (CHO cells); [125I]APT 0.075 nM; 120 min RT
H2 (h), sequence (P25021 whole entry): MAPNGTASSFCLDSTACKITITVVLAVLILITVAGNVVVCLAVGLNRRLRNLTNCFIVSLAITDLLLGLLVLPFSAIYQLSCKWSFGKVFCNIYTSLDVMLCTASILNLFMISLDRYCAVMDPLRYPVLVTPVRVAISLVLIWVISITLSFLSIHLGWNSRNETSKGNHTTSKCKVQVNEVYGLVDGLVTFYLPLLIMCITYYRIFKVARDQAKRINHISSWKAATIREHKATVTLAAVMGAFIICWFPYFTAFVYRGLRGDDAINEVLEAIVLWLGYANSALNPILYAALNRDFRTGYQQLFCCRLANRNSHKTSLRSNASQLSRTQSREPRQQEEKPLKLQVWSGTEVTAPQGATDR

δ (DOP) (h) = δ (DOP) (h) (Homo sapiens (Human), UniProt P41143); assay: δ (DOP) (h) binding assay, [3H]DADLE; settings: Human recombinant (Chem-1 (RBL) cells); [3H]DADLE 0.5 nM; 60 min RT
δ (DOP) (h), sequence (P41143 whole entry): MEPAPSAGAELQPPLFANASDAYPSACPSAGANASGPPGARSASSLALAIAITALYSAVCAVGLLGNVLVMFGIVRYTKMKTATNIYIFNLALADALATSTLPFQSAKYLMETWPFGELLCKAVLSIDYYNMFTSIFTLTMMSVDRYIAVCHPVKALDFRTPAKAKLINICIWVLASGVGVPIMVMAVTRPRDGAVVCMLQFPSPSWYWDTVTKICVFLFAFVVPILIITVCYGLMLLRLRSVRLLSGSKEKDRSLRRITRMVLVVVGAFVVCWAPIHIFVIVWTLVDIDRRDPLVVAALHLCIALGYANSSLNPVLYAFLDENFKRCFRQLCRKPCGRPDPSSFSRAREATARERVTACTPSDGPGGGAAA
Protocol: as §1
The general procedure is noted below. See Simonin, F. et al. (1994), Mol. Pharmacol., 46: 1015-1021. Minor variations to the experimental protocol described below may have occurred during the testing but if so, they had no impact on the quality of the results obtained.

kappa (h) (KOP) = kappa (h) (KOP) (Homo sapiens (Human), UniProt P41145); assay: kappa (h) (KOP) binding assay, [3H]U69593; settings: Human recombinant (RBL cells); [3H]U69593 0.5 nM; 60 min RT
kappa (h) (KOP), sequence (P41145 whole entry): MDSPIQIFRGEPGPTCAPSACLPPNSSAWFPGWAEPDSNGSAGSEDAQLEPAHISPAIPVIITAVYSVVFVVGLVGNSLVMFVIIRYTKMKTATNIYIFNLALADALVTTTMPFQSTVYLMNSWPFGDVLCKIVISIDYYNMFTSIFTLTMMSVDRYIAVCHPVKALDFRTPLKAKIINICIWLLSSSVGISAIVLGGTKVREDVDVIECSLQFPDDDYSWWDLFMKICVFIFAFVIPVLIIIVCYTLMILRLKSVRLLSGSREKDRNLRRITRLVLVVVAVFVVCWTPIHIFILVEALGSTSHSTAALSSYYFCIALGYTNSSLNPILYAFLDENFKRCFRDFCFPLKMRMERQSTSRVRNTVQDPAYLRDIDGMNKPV
Protocol: as §1
The general procedure is noted below. See Simonin, F. et al. (1995), Proc. Natl. Acad. Sci. U.S.A., 92: 7006-7010. Minor variations to the experimental protocol described below may have occurred during the testing but if so, they had no impact on the quality of the results obtained.

5-HT5a (h) = 5-HT5a (h) (Homo sapiens (Human), UniProt P47898); assay: 5-HT5a (h) binding assay, [3H]LSD; settings: Human recombinant (HEK-293 cells); [3H]LSD 1.5 nM; 120 min 37° C.
5-HT5a (h), sequence (P47898 whole entry): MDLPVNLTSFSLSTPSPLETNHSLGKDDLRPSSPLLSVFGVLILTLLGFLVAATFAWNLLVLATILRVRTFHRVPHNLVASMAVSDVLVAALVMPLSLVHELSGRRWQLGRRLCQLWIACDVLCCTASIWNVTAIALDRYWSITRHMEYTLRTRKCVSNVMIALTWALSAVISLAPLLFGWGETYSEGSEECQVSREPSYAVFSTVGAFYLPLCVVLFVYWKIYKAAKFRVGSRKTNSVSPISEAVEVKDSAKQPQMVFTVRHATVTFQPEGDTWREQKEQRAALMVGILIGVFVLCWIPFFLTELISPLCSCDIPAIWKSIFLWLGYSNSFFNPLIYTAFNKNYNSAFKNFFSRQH
Protocol: as §1
The general procedure is noted below. See Rees, S. et al. (1994), FEBS Lett., 355: 242-246. Minor variations to the experimental protocol described below may have occurred during the testing but if so, they had no impact on the quality of the results obtained.

[1] = biological target: Norepinephrine transporter (h) (Homo sapiens (Human), UniProt P23975); assay: Norepinephrine transporter (h) binding assay, [3H]nisoxetine; settings: Human recombinant (CHO cells); [3H]nisoxetine 1 nM; 120 min 4° C.
Norepinephrine transporter (h), sequence (P23975 whole entry): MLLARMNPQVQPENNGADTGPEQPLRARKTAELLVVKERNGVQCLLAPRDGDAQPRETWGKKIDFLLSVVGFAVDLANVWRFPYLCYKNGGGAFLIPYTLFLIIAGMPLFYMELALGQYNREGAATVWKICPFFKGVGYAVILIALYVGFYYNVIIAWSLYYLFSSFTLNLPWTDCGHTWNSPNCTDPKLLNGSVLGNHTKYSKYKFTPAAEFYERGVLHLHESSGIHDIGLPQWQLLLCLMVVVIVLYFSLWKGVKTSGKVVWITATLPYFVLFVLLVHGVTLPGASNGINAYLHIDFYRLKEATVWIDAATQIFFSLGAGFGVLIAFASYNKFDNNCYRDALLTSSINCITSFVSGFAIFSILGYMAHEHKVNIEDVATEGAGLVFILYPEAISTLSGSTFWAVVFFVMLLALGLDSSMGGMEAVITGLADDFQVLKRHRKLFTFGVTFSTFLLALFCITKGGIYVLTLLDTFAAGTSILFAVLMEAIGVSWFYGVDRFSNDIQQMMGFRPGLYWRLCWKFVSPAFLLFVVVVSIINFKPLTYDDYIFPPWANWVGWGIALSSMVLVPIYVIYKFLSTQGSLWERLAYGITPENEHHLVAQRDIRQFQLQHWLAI
Protocol: as §1
The general procedure is noted below. See Pacholczyk, T. et al. (1991), Nature, 350: 350-354. Minor variations to the experimental protocol described below may have occurred during the testing but if so, they had no impact on the quality of the results obtained.

BTK(h), sequence (Q06187 whole entry): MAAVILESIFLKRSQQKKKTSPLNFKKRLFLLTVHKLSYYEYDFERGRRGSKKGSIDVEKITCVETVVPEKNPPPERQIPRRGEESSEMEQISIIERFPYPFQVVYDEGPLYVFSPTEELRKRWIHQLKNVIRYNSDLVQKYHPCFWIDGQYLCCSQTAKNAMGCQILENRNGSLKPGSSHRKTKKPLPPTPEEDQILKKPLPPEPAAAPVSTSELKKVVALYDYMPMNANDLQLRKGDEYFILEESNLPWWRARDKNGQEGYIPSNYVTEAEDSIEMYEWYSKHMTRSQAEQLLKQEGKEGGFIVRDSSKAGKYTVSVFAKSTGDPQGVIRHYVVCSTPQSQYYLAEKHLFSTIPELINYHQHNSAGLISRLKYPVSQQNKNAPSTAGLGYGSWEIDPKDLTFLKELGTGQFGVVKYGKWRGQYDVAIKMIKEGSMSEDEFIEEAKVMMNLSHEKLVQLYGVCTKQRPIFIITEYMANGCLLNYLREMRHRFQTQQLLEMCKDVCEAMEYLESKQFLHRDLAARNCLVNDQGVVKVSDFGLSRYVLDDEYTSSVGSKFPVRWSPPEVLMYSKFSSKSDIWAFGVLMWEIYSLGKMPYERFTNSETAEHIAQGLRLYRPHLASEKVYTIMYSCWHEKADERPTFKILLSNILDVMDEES

Nc1nccc2c1n(-c1ccc(Oc3ccccc3)cc1)c(=O)n2[C@@H]1CCCNC1 [Formula III]
IC50 (BTK(h)): 1380 nM | % inhibition of the binding of radioactively labeled ligand (Dopamine transporter (h)): 96.2% | % inhibition of the binding of radioactively labeled ligand (H2 (h)): 56.7% | % inhibition of the binding of radioactively labeled ligand (δ (DOP) (h)): 56.7% | % inhibition of the binding of radioactively labeled ligand (kappa (h) (KOP)): 54.6% | % inhibition of the binding of radioactively labeled ligand (5-HT5a (h)): 56.1% | % inhibition of the binding of radioactively labeled ligand [1]: 66.7%

C=CC(=O)N1C[C@H](O)C[C@@H](n2c(=O)n(-c3ccc(Oc4ccccc4)cc3)c3c(N)nccc32)C1 [Formula Ib, 4-amino-1-[(3R,5R)-5-hydroxy-1-prop-2-enoyl-3-piperidyl]-3-(4-phenoxyphenyl)imidazo[4,5-c]pyridin-2-one]
IC50 (BTK(h)): 34 nM

C=CC(=O)N1C[C@@H](O)C[C@@H](n2c(=O)n(-c3ccc(Oc4ccccc4)cc3)c3c(N)nccc32)C1 [Formula Ia, 4-amino-1-[(3R,5S)-5-hydroxy-1-prop-2-enoyl-3-piperidyl]-3-(4-phenoxyphenyl)imidazo[4,5-c]pyridin-2-one]
% inhibition of the binding of radioactively labeled ligand (Dopamine transporter (h)): 65%

Nc1nccc2c1n(-c1ccc(Oc3ccccc3)cc1)c(=O)n2[C@@H]1CCCN(C(=O)C(O)CO)C1 (stereo partly drawn) [Formula II, 4-amino-3-(4-phenoxyphenyl)-1-[(3R)-1-(2,3-dihydroxypropanoyl)-3-piperidyl]imidazo[4,5-c]pyridin-2-one]
IC50 (BTK(h)): 279 nM
